# Measurements from patent publication US20250367419A1, “DRUG DELIVERY SYSTEM COMPRISING AN AGENT EFFECTIVE IN THE TREATMENT OR PREVENTION OF AN ESOPHAGEAL DISEASE FOR THE APPLICATION TO ESOPHAGEAL MUCOUS MEMBRANES” (EsoCap AG, priority 2022, published 2025).
# “Also recorded” adds a separate entry of the source. r = 2'-OH (RNA)
# Tests used:
# Type in all cases: physicochemical
# [1] = Stability of RNA on the polymer film, 20% denaturing polyacrylamide gel
# Experimental: • 1. preparation “base polymer mixture” • 2. sterilization • 3. preparation of film laminates • 4. drying • 5. cutting (A=0.25 cm^2) • 6. application of RNA samples on the polymer film • 7. drying of the final samples • !points 3-7 under aseptic conditions!
# Stability of RNA on the film was analyzed using a 20% denaturizing polyacrylamide (PAA) gel. The experiment was repeated with a commercially available siRNA.
# Stability of RNA on the film was further analyzed before and after solubilization of the film.
# [2] = Stability of antisense BMP2 RNA on the film under various application and storage conditions, 20% denaturing polyacrylamide gel; details: for RNA degradation after storage of the dry film: 10 days of storage of the dry film at 4° C.
# Experimental: A film containing the antisense RNA for BMP2 was prepared as described in Example 2 except for using PVA 4-88 instead of PVA 18-88.
# The stability of the antisense BMP2 RNA was analyzed under various application conditions as indicated in FIG. 16 and the legend of FIG. 16. 10 pmol of each probe was loaded on a 20% denaturing polyacrylamide gel. The gel was run for 3 hours at 140 volt and subsequently colored with SYBR gold for 20 minutes.
# The stability of labeled antisense BMP2 RNA was analyzed in comparison to unlabeled antisense BMP2 RNA under various application conditions as indicated in FIG. 17 and the legend of FIG. 17. In lanes 1 to […], 5 pmol of the probe, in lanes 4 to 6, 10 pmol of each probe were loaded on a 20% denaturing polyacrylamide gel. The gel was run for 3 hours at 140 volt and subsequently colored with ethidium bromide for 30 minutes (FIG. 17a) or excited with light of a wavelength of 630 nm and emission was measured at 675 nm (FIG. 17b). The bands of labeled BMP2 RNA in FIG. 17b correspond to the band of the unlabeled BMP2 RNA in FIG. 17a Since the unlabeled BMP2 RNA has no fluorescent marker, the bands of unlabeled BMP2 RNA are not visible in FIG. 17b.
# The stability of labeled antisense BMP2 RNA was analyzed in comparison to unlabeled antisense BMP2 RNA after storage of the dry film for 10 days at 4° C. Probes were loaded on a 20% denaturing polyacrylamide gel. The gel was run for 3 hours at 140 volt and subsequently colored with ethidium bromide for 30 minutes (FIG. 18b) or excited with light of a wavelength of 630 nm and emission was measured at 675 nm (FIG. 18a). The bands of labeled BMP2 RNA in FIG. 18a correspond to the band of the unlabeled BMP2 RNA in FIG. 18b.
# [3] = HPLC analysis of paclitaxel content of the coated polymer film; details: API-loaded film sample compared with calibration sample
# Experimental: • 1. Preparation polymer mixture • 2. Preparation of film laminates • 3. Slitting of the moist laminates • 4. Coating of the moist laminates • 5. Drying at room temperature
# Further, the film was analyzed for the content of paclitaxel. To this end, 5 circular samples with a size of 1 cm^2 were cut at random positions of the film and dissolved in Brij® L23-buffer/methanol (MeOH) for HPLC analysis with Hypersil ODS 150×4.6 mm as stationary phase and acetonitrile/phosphate buffer as mobile phase. The HPLC results are shown in FIG. 11 in comparison to a blank film sample and a calibration sample.
molecule,measurement,setting,value
"5′ UGCGCAGAAUGAGAUGAGUUG 3′ (UGCGCAGAAUGAGAUGAGUUG; listed as RNA, chemistry not given here)",influence of the film on RNA stability,"[1]; RNA applied on PVA 18-88 film, 20% denaturing PAA gel",no influence on the stability
same,storage stability of RNA on the dry film,"[1]; dried samples on the film, 4 days at 4° C.",no influence on RNA stability
"5′-AUU UCG AGU UGG CUG UUG C-3′ (antisense AUUUCGAGUUGGCUGUUGC; RNA, 3' rUrU, backbone not given here) [BMP2 RNA, antisense strand of BMP2-siRNA 2]",RNA degradation after storage of the dry film,[2],no RNA degradation could be observed
same,stability of RNA after application to the film,"[2]; PVA 4-88 film, various application conditions, compared with stock sample",no difference between the test sample and the stock sample; also recorded: not degraded by the film
"CC(=O)O[C@H]1C(=O)[C@@]2(C)[C@H]([C@H](OC(=O)c3ccccc3)[C@]3(O)C[C@H](OC(=O)[C@H](O)[C@@H](NC(=O)c4ccccc4)c4ccccc4)C(C)=C1C3(C)C)[C@]1(OC(C)=O)CO[C@@H]1C[C@@H]2O [paclitaxel, (2α,4α,5β,7β,10β,13α)-4,10-Bis(acetyloxy)-13-{[(2R,3S)-3-(benzoylamino)-2-hydroxy-3-phenylpropanoyl]oxy}-1,7-dihydroxy-9-oxo-5,20-epoxytax-11-en-2-yl-benzoat]",stability of paclitaxel prepared in a film,[3],can be stably prepared in a film
"labeled BMP2 RNA: SEQ ID NO:23 antisense BMP2 RNA labeled with the dye Atto633 attached to the 3′ end (antisense AUUUCGAGUUGGCUGUUGC; listed as RNA, chemistry not fully specified)",RNA degradation after storage of the dry film,[2],no RNA degradation could be observed
